# Marks after values point to notes of the source that are not given here.
# What was measured:
# [1] = system: Fisher F344 rats; assay: Hypocholesterolemic effects of five small peptides in Fisher F344 rats, hypercholesterolemic rat model (Example 9); assay type: in vivo; conditions: 100 mg/kg BW oral, 7 days, mean ± SD, n = 9-10; for HDL cholesterol (plasma): control 0.14 ± 0.08; for Total cholesterol (plasma): control 10.1 ± 2.2; for non HDL cholesterol (plasma): total minus HDL cholesterol, control 10.0 ± 2.2
# Text: In short eighty male Fisher rats (F344) from Charles River (Sulzfeld, Germany), weighing 65-96 g were housed individually with free access to water and feed, with an alternating 12-hour light-dark cycle. The animals were fed a rodent atherogenic diet high in cholesterol and fat for the 2 weeks preceding the treatment. The macro-nutrient composition of the diet was as follows (g/100 g anhydrous mix): protein 20.8; fiber 4.2; fat 15; carbohydrate 48. The diet also contained 1.25 wt % cholesterol, 0.5 wt % sodium cholate and a standard vitamin and mineral mix, prepared according to rat nutritional requirements. The main fats consisted of cacoa butter (7.5 wt %) and soja oil (4.35 wt %). After 2 weeks of adaptation to the diet the rats were randomized according to body weight into […] of 10 animals. The […] were treated orally every morning for 7 days with either water (control group) or one of the following peptides: RPRPS, RGRPS, HPHPH, RPRP, KPKPS, at a dose of 100 mg/kg body weight (BW) while continuing the aetherogenic diet. There was no difference in feed consumption over the whole experiment. The day before the last administration, all animals were dosed orally in the evening and deprived of food overnight (14 hours) but allowed free access to water. At day 7 the fasted rats were treated again orally in the morning and after two hours the animals were sacrificed by withdrawing blood from the vena Cava under Isoflurane anesthesia. Blood was collected into tubes containing EDTA as an anticoagulant. Plasma was prepared from the blood by immediate centrifugation at 1600 g for 10 minutes at 4° C. Assays of plasma cholesterol and HDL-cholesterol (precipitation method) were determined enzymatically on a Hitachi 912 automatic analyzer (Roche Diagnostica, Switzerland). Non-HDL cholesterol was calculated by difference between total cholesterol and HDL cholesterol. One animal in the control group was excluded from the analysis due to hemolytic plasma which interfered with the measurements. All data are expressed as means±standard deviation (SD) for animals in each diet group, with n being the number of rats. Statistical significance of the mean differences between dietary groups was tested by one-way analysis of variance (ANOVA). If significant differences were found, the Dunnett's test for multiple comparison was used to compare each group to the control group. P values less than 0.05 were considered significant (Table 3).
# [2] = Solubility of cholesterol in mixed micelles (intramicellar cholesterol after 24 h at 37° C., centrifugation and filtration); conditions: 10 mg/ml test substance, 0.5 mM cholesterol, 6.6 mM taurocholate, 2.4 mM lecithin, pH 7.4, control 0.494
# Description: The mixed micelles were prepared according to the method described by Nagaoka et al. (Biochemical and Biophysical Research Communications 281: 11-17 (2001)) by sonication of a 15 mM phosphate buffer saline (PBS) solution containing 6.6 mM taurocholate, 2.4 mM lecithin, 0.5 mM cholesterol and either 10 mg/ml of octapeptide (RPRPRPSF, MW1012) or 10 mg/ml soy protein (SUPRO 760, Solea Belgium) at pH 7.4. The lipids, phospholipids and cholesterol were dissolved in methanol and dried before adding the PBS buffer and the peptides or the soy protein at a final concentration of 10 mg/ml. The resulting micellar solution was kept at 37° C. for 24 hours and centrifuged at 1000×g for 10 min. In order to separate any precipitated cholesterol from the intramicellar cholesterol the solution was then filtered through a 0.22 μm MILLEX-GP filter (Millipore, Bedford, Mass., USA). The intramicellar concentration of cholesterol was then determined enzymatically using a cholesterol kit and a Hitachi 912 automatic analyzer from Roche Diagnostica, Switzerland.
# [3] = system: Fisher F344 rats; assay: Hypocholesterolemic effects of peptides in Fisher F344 rats on atherogenic diet (Example 8); assay type: in vivo, rat; conditions: 7 days; for HDL cholesterol (plasma) / Total cholesterol (plasma) / non HDL cholesterol (plasma): mean ± SD, n = 10; for HDL cholesterol (plasma): control 0.22 ± 0.12; for Total cholesterol (plasma): control 12.8 ± 3.1; for non HDL cholesterol (plasma): total minus HDL cholesterol, control 12.5 ± 3.1
# Text: Forty male Fisher rats (F344) from Charles River (Sulzfeld, Germany), weighing 70-85 g were housed individually with free access to water and feed, with an alternating 12-hour light-dark cycle. The animals were fed a rodent atherogenic diet high in cholesterol and fat for the 2 weeks preceding the treatment. The macro-nutrient composition of the diet was as follows (g/100 g anhydrous mix): protein 20.8; fiber 4.2; fat 15; carbohydrate 48. The diet also contained 1.25 wt % cholesterol, 0.5 wt % sodium cholate and a standard vitamin and mineral mix, prepared according to rat nutritional requirements. The main fats consisted of cacoa butter (7.5 wt %) and soja oil (4.35 wt %). After 2 weeks of adaptation to the diet the rats were randomized according to body weight into four experimental groups of 10 animals. The four groups were treated orally every morning for 7 days with either water (control group) or octapeptide (RPRPRPSF) at two doses of 200 and 800 mg/kg body weight (BW) respectively or soy protein (SUPRO 760) at 800 mg/kg BW while continuing the aetherogenic diet. There was no difference in feed consumption over the whole experiment. The day before the last administration, all animals were dosed orally in the evening and deprived of food overnight (14 hours) but allowed free access to water. At day 7 the fasted rats were treated again orally in the morning and after two hours the animals were sacrificed by withdrawing blood from the vena Cava under Isoflurane anesthesia. Blood was collected into tubes containing EDTA as an anticoagulant. Plasma was prepared from the blood by immediate centrifugation at 1600 g for 10 minutes at 4° C. Assays of plasma cholesterol and HDL-cholesterol (precipitation method) were determined enzymatically on a Hitachi 912 automatic analyzer (Roche Diagnostica, Switzerland). Non-HDL cholesterol was calculated by difference between total cholesterol and HDL cholesterol. All data are expressed as means±standard deviation (SD) for animals in each diet group, with n being the number of rats. Statistical significance of the mean differences between dietary groups was tested by one-way analysis of variance (ANOVA). If significant differences were found, the Dunnett's test for multiple comparison was used to compare each group to the control group. P values less than 0.05 were considered significant (Table 2).
# [4] = In vivo efficacy of peptide RPRPRPSF with and without beta-sitosterol (protocol of Nagaoka et al.); conditions: in combination with beta-sitosterol
# Text: Peptide RPRPRPSF is chemically synthesized and beta-sitosterol is obtained from Sigma. Both compounds, apart and in combination, are subjected to a testing protocol which is essentially similar to the in vivo testing protocol described by Nagaoka et al., BBRC 281 (2001) 11-17.
# [5] = 200 and 800 mg/Kg BW oral, p < 0.05
substance,measurement,setting,value
HPHPH,HDL cholesterol (plasma),[1],0.29 ± 0.13^b mmol/L
same,Total cholesterol (plasma),[1],3.4 ± 1.2^b mmol/L
same,non HDL cholesterol (plasma),[1],3.1 ± 1.3^b mmol/L
"RPRPRPSF [synthetic octapeptide R-P-R-P-R-P-S-F, MW1012]",Cholesterol content of the micellar solution,[2]; listed as Octapeptide,0.153 mmol/L
same,Cholesterol content of the micellar solution,[2]; listed as octapeptide (RPRPRPSF),drastically decreased
same,HDL cholesterol (plasma),[3]; 200 mg/Kg BW oral,0.54 ± 0.20^b mmol/L
same,Total cholesterol (plasma),[3]; 200 mg/Kg BW oral,4.1 ± 1.2^b mmol/L
same,non HDL cholesterol (plasma),[3]; 200 mg/Kg BW oral,3.6 ± 1.2^b mmol/L
same,HDL cholesterol (plasma),[3]; 800 mg/Kg BW oral,0.51 ± 0.17^b mmol/L
same,Total cholesterol (plasma),[3]; 800 mg/Kg BW oral,3.4 ± 0.7^b mmol/L
same,non HDL cholesterol (plasma),[3]; 800 mg/Kg BW oral,2.9 ± 0.7^b mmol/L
same,Non-HDL cholesterol (VLDL-cholesterol+LDL-cholesterol) levels as compared to the control group,[3]; [5],significantly lowered
same,Plasma total cholesterol levels as compared to the control group,[3]; [5],significantly lowered
same,Ratio of non-HDL cholesterol to HDL-cholesterol,[3]; oral,positively affected
same,Plasma HDL-cholesterol compared to the control group,"[3]; oral, p < 0.05",significantly increased
same,Effect on cholesterol in vivo,[4],further enhanced
RPRP,HDL cholesterol (plasma),[1],0.33 ± 0.11^b mmol/L
same,Total cholesterol (plasma),[1],2.9 ± 0.4^b mmol/L
same,non HDL cholesterol (plasma),[1],2.6 ± 0.4^b mmol/L
RPRPS,HDL cholesterol (plasma),[1],0.29 ± 0.06^b mmol/L
same,Total cholesterol (plasma),[1],3.6 ± 1.1^b mmol/L
same,non HDL cholesterol (plasma),[1],3.3 ± 1.2^b mmol/L
RGRPS,HDL cholesterol (plasma),[1],0.37 ± 0.14^b mmol/L
same,Total cholesterol (plasma),[1],3.2 ± 0.4^b mmol/L
same,non HDL cholesterol (plasma),[1],2.9 ± 0.4^b mmol/L
KPKPS,HDL cholesterol (plasma),[1],0.29 ± 0.11^b mmol/L
same,Total cholesterol (plasma),[1],3.0 ± 1.0^b mmol/L
same,non HDL cholesterol (plasma),[1],2.7 ± 1.0^b mmol/L
